Reference: patent US20260097026A1, “INHIBITION OF AORTIC VALVE CALCIFICATION” (priority 2022, published 2026)

Tested on: Human valve interstitial cells (VIC)
Assay: Calcification inhibition in human valve interstitial cells (VIC); staining followed by spectroscopy
Type: cell-based
Conditions: VIC isolated from human aortic valves; calcification induced; test substance contacted during or after induced calcification; degree of calcification by staining and spectroscopy (FIG. 2, FIG. 3)
Description: Human valve interstitial cells (VIC) are isolated from human aortic valves harvested during surgery for use in calcification inhibitor testing. After isolation, calcification is induced in the cells. The activity of potential inhibitors is assayed by contacting the VIC cells with the test substance during or after the induced calcification. The degree of calcification is measured by staining followed by spectroscopy. FIG. 1 provides photomicrographs of control cells (no induced calcification, left panel), cells where calcification is induced (middle panel), and calcification in the presence of an inhibitor (right panel).

Structure (SMILES)	inhibition of calcification
COCCCOc1ccnc(C[S+]([O-])c2nc3ccccc3[nH]2)c1C (stereo not shown) [Rabeprazole, rabeprazole]	inhibition of calcification
Cc1c(OCC(F)(F)F)ccnc1C[S+]([O-])c1nc2ccccc2[nH]1 (stereo not shown) [lansoprazole]	inhibition of calcification
COc1ccc2[nH]c([S+]([O-])Cc3ncc(C)c(OC)c3C)nc2c1 (stereo not shown) [omeprazole]	inhibition of calcification
COc1ccnc(C[S+]([O-])c2nc3cc(OC(F)F)ccc3[nH]2)c1OC (stereo not shown) [pantoprazole]	inhibition of calcification
